The values below come from patent publication US4440757A, “Pharmaceutical composition comprising derivative of aminobenzoic acid for regulating prostaglandin” (priority 1978, dated 1984).

One may read the LD50 as the dose at which mortality reaches 50%. Read a high LD50 as a less toxic substance.

Series [1] is described as follows: Acute oral toxicity (Litchfield-Wilcoxon). To be noted: in vivo, mouse, 7 days. Here is the method:
The acute oral toxicity of the present substances were examined by using groups of ICR-JCL mouse and orally administering each of the representatives of present substances forcibly as an aqueous solution in distilled water or as an aqueous suspension also in distilled water at predetermined dosages, respectively. After observing the toxicological symptoms, if any, for 6 days, and recording the mortality until 7th day of the administration, LD50 (acute oral) was calculated by the method of Litchfield-Wilcoxon, and autopsy was carried out on dead mice and live mice to obtain informations.

In series [2] the test system is Salmonella typhimurium TA 98. Briefly: Mutagenicity, reversion assay, TA 98. Particulars: 5,000 μg/plate; control 13. It counts as cell-based. Here is the method:
(ii) The strains TA 98 and TA 100 (both are histidine requiring) of Salmonella typhimurium were used in the reversion assay.
Into 2 ml of a soft agar culture medium (the medium itself contains 6 g of sodium chloride and 6 g of agar in 1000 ml of distilled water) to which one tenth by volume of an aqueous solution of 0.5 mM of biotin and 0.5 mM of histidine had been added, 0.1 ml of the bacterial suspension and 0.1 ml of an aqueous solution of the present substance were admixed and the mixture was layered on the minimum agar culture medium. After 2 days of incubation at 37° C., the number of revertant colonies was counted. Furylfuramide (AF-2) was used as the positive control.

The subject of series [3] is platelets (3 times concentrated PRP), cyclic AMP. Briefly: Level of cyclic AMP in platelets. Particulars: room temperature, 5 min. It counts as cell-based. Here is the method:
PRP (platelet rich plasma) was prepared by the predetermined method and it was centrifugated for 20 min at 700XG to obtain a supernatant liquid named PPP (platelet poor plasma). The precipitate was re-floated in 1/3 times by volume of PPP to prepare 3 times concentrated PRP.
In the thus prepared concentrated PRP, each aqueous solution of the present substances of a pre-determined concentration (in this case, Specimens Nos. 4, 7 and 8) and an aqueous physiological saline solution, and the mixture was incubated at room temperature for 5 min. Then, the procedures of boiling, homogenating and centrifugating were carried out in this order, and 50 μl of the supernatant liquid was used for measuring cyclic AMP. The measurement was carried out following the method of Gilman. As a positive control, PGE1 was used.

The next series relates to Ehrlich cancer. Briefly: Cancer proliferation and PGE in the cancer cells (Ehrlich). It counts as in vivo, C57BL/6 mouse. Particulars: 100 mg/kg i.p. every other day, 14th day; for Weight of cancer: control 1.30; for Content of PGE in the cancer: control 1.77. Here is the method: Following the same method as in Example 12, the anti-cancer action against transplanted Ehrlich cancer in C57BL/6 mouse, and the amount of PGE in the cancer cells in proliferation in the living body of the mouse were examined in the cases where each one compound of the present invention, Specimens Nos. 1, 2, 3, 4, 5, 6, 8, 9, 10 and 11 was intraperitoneally administered every other day from the next day of the transplantation in total 6 times at a dosage of 100 mg/kg.
The results of determination of the weight of cancer extirpated from the sacrificed mouse on 14th day of the transplantation of the cancer cells, 1×10^6 in number per animal, and content of PGE of the extirpated cancer are shown in the following Table 13: […]

The test system of series [4] is male SHR rats. As to the kind of experiment: Effect of aspirin on the hypotensive action. In kind it is in vivo, rat (SHR). To be noted: 100 mg/kg p.o., after 6 hours; for Alteration of blood pressure, Case (b): with aspirin 200 mg/kg before and after; for Alteration of blood pressure, Case (a): without aspirin. Here is the method:
It is known that PGs are produced from arachidonic acid and the conversion of arachidonic acid into PGG2 is mediated by cyclooxygenase. Also it is known that aspirin inactivates cyclooxygenase, and that the […] of PGs is completely stopped by the administration of aspirin to a mammal.
Accordingly, the following experiment was carried out: To groups of male SHR rats of 30 to 40 weeks after birth, (a) one of the present substance was forcibly administered orally at 100 mg/kg as a solution in distilled water or an aqueous suspension in 2% solution of carboxymethylcellulose or (b) aspirin was forcibly administered orally, before and after one hour of the administration of the present substance, at 200 mg/kg. The blood pressure of the thus treated rats was measured with the time passage.

Series [5] has as its system male SHR rats. Briefly: Blood pressure and 6-keto PGF1-α in blood of SHR after 14 days. In kind it is in vivo, rat (SHR). To be noted: 100 mg/kg/day p.o.; for Content of 6-keto-PGF1-α in blood: control 3; for Blood pressure: control 195. Here is the method:
After forcibly administering the present substance (Specimens Nos. 4, 7 and 8) every day for successive 14 days at a rate of 100 mg/kg/day by oral route to groups of male SHR rats, their whole blood was collected on 15th day to obtain the plasma fraction. The ether-extract of the plasma fraction was separated and isolated by thin-layer chromatography and after converting the isolated fraction into methyloximesilyl derivatives, the alteration of 6-keto PGF1-α was examined by gas-chromatography and mass-spectroscopy. In the group to which the present substance was administered, the content of 6-keto PGF1-α was larger together with the reduced blood pressure than in control. This parallelism of the effects leads to the presumption that the effect of the present invention is mediated by prostaglandin.

The subject of series [6] is cervical aorta of an SD rat, PGI2. Briefly: PGI2 production by cuttings of cervical aorta. Particulars: 50 microliters of 2% solution into 500 microliters, 10 min. In kind it is cell-based. The protocol: After extirpating the cervical aorta of an SD rat under anesthsia, it was washed with Krebs-Linger bicarbonate buffer solution and cut into thin rings, and the cutings were kept in the above-mentioned buffer solution at a rate of 1 mg of wet cuttings per 0.5 ml to produce PGI2.
Into 500 microliters of the thus prepared mixture, 50 micro-liters of an aqueous physiological saline solution containing 2% by weight of the present substance (each of Specimens Nos. 4, 7 and 8) dissolved therein were added and, since the production of PGI2 generally attains to its maximum after 10 min of keeping, a supernatant liquid (2.5 μl) of the mixture was prepared after 10 min of the addition, and then the amount of PGI2 in the supernatant liquid was determined by using the action of suppression of aggregation of the platelets as an index and using ADP as the agglutinating agent, only an aqueous physiological solution being used as control.

For a further series, the system named is male Sprague-Dowley rats. As to the kind of experiment: Foot-oedema induced by carrageenin and PGE1. In kind it is in vivo. Particulars: 1000 mg/kg p.o.; with carrageenin + PGE1; 60 min after carrageenin. Here is the method:
The three groups of male Sprague-Dowley rats of total six groups, the respective present substances, Specimens Nos. 4, 7 and 8 were administered forcibly by oral route at a rate of 1000 mg/kg, the other three groups of the same kind of rats being administered nothing at this time.
After 60 min of the administration, 0.1 ml of an aqueous solution of carrageenin (1 mg) and PGE1 (0.1 μg) was injected onto the hind paw of the four groups of the rats including the three groups administered with the present substance. To one group of remaining two groups not administered with the present substance, 0.1 ml of an aqueous solution containing only carrageenin at 1% was injected, and to the other one group not administered with the present substance, an aqueous solution containing only PGE1 was injected.
The volume of the thus swollen foot of the groups of the thus treated rats was measured by the water-displacement method, and the results are shown in Table 17 by the increment of the volume of foot as compared to the volume of foot before the treatment as percentage.

With `O=C(O)c1ccc(NC2OC[C@@H](O)[C@H](O)[C@H]2O)cc1` (stereo partly drawn) [Specimen No. 7, Sodium p-aminobenzoate-N--D-xyloside], in series [1], the median lethal dose (LD50) at 168 h is 11800 mg/kg. The “Number of revertant colonies TA 98” value in series [2] was found to be 4 number per plate. Also, the “level of intra-platelet cyclic AMP (FIG. 7)” value (“level” below) in series [3] was “raising the level of intra-platelet cellular cyclic AMP”. Also, in the series on Ehrlich cancer, the Weight of cancer turned out to be 0.75 g and the “Content of PGE in the cancer” value worked out at 3.98 ng/g. Besides, in the series with male SHR rats [4], the “Alteration of blood pressure, Case (b)” value worked out at 0 mmHg and the “Alteration of blood pressure, Case (a)” value was -20 mmHg. Also, in the series with male SHR rats [5], the “Content of 6-keto-PGF1-α in blood” value is 6.5 ng/mL and the Blood pressure was 160 mmHg. In series [6], the “production of PGI2 by cuttings of cervical aorta (FIG. 15)” value (“production of PGI2” for short) is reported as “raised the production of PGI2”. Moreover, in the series with male Sprague-Dowley rats, the “Percentage increment of volume of foot” value is reported as 28.2%.

As to `C[C@@H]1OC(Nc2ccc(C(=O)O)cc2)[C@H](O)[C@H](O)[C@H]1O` (stereo partly drawn) [Specimen No. 8, Sodium p-aminobenzoate-N--L-rhamnoside], the 50% lethal dose (LD50) at 168 h in series [1] worked out at 12800 mg/kg. Moreover, the “Number of revertant colonies TA 98” value in series [2] worked out at 4 number per plate. Moreover, in series [3], the “level” value was “raising the level of intra-platelet cellular cyclic AMP”. Also, in the series on Ehrlich cancer, the Weight of cancer is reported as 0.72 g and the “Content of PGE in the cancer” value was 4.03 ng/g. Moreover, in the series with male SHR rats [4], the “Alteration of blood pressure, Case (b)” value was 0 mmHg and the “Alteration of blood pressure, Case (a)” value is given as -15 mmHg. In addition, in the series with male SHR rats [5], the “Content of 6-keto-PGF1-α in blood” value came out at 7 ng/mL and the Blood pressure is given as 150 mmHg. For the same molecule, in series [6], the “production of PGI2” value was “raised the production of PGI2”. Also, the “Percentage increment of volume of foot” value in the series with male Sprague-Dowley rats turned out to be 29.7%.

Molecule `O=C(O)c1ccc(NC2O[C@H](CO)[C@@H](O)[C@H](O)[C@@H]2O)cc1` (stereo partly drawn) [Specimen No. 4, Sodium p-aminobenzoate-N--D-mannoside] yielded an LD50 at 168 h in series [1] above 10000 mg/kg. For the same molecule, the “Number of revertant colonies TA 98” value in series [2] came out at 5 number per plate. Besides, in series [3], the “level” value is on record as “raising the level of intra-platelet cellular cyclic AMP”. In the series on Ehrlich cancer, the Weight of cancer came out at 0.56 g and the “Content of PGE in the cancer” value turned out to be 4.19 ng/g. In addition, in the series with male SHR rats [4], the “Alteration of blood pressure, Case (b)” value was -5 mmHg and the “Alteration of blood pressure, Case (a)” value is -20 mmHg. Besides, in the series with male SHR rats [5], the “Content of 6-keto-PGF1-α in blood” value is 7 ng/mL and the Blood pressure came to 155 mmHg. The “production of PGI2” value in series [6] was “raised the production of PGI2”. Moreover, in the series with male Sprague-Dowley rats, the “Percentage increment of volume of foot” value was 32.5%.
